Data: patent US11091476B2, “Protein kinase inhibitors, preparation method and medical use thereof” (Gan & Lee Pharmaceuticals, priority 2015, dated 2021)

How the values were obtained:
CDK1/CyclinA2 = CDK1/CyclinA2 (Homo sapiens (Human), UniProt P06493); assay: CDK kinase inhibitory activity, ADP-Glo Kinase Assay, CDK1/CyclinA2; format: biochemical
Method: (§1) Measurement of CDK kinase inhibitory activity of the compounds of this disclosure.
(§2) In vitro inhibitory effect of the compounds of the disclosure on CDK (CDK1, CDK4 and CDK6) kinase activity was tested by the following method.
(§3) 1.1 Instrument and Kit Information
(§4) 1.2 Experimental Preparation • 1.2.1 Preparation of Kinase Reaction Buffer I: The 5×Reaction Buffer A (Promega; V307A-C) provided in the kit was mixed and diluted with MILLI-Q® H2O and 0.1 M DTT (dithiothreitol) to give 4× kinase buffer, and then MILLI-Q® H2O was further added to finally formulate the solution into 1× Kinase buffer.
(§5) 1 μl of 10 mM standard substance stock solution was taken and added to 9 μl of kinase reaction buffer I and mixed well; then 90 μl of kinase reaction buffer I was added and mixed well; then 100 μl of kinase reaction buffer I was added and mixed well. The final concentration was 50 μM. • b. 40 μl of kinase reaction buffer II was added into B2 to B10 of a 96-well plate, and 50 μl of the above solution was added into B1; • c. 10 μl of solution was taken from well B1, added into B2, and mixed well; then 10 μl of the resulting solution was taken and added into B3, and dilution was carried out in sequence to B9, so as to obtain control solutions that are diluted by 5-fold sequentially. • (2) Preparation of test compound solution: • a. Test compound solutions at a certain concentration were taken, respectively, diluted with kinase reaction buffer I to a final concentration of 50 μM compound solution; • b. 40 μl of kinase reaction buffer II was added into H2 to H10 of the 96-well plate; and 50 μl of the above solution was added into H1; • c. 10 μl of solution was taken from well H1, added into H2, and mixed well; then 10 μl of the resulting solution was taken and added into H3, and dilution was carried out in sequence to H9, so as to obtain test compound solutions that are diluted by 5-fold sequentially. • 1.2.4 Preparation of a mixed solution of reaction substrate and ATP: • a. Preparation of ATP solution: • 200 μl of 0.1 mM ATP solution: 2 μl of 10 mM ATP was added to 198 μl of kinase reaction buffer I; • 300 μl of 50 μM ATP solution: 150 μl of kinase reaction buffer I was added to 150 μl of the above 0.1 mM ATP solution; • b. Preparation of 300 μl of reaction substrate solution: • 150 μl 1 μg/μl reaction substrate stock solution was added to 150 μl kinase reaction buffer I, and mixed well; • c. The above a/b solutions were mixed to obtain mixed solutions, respectively.
(§6) 1.3 Experimental process: • 1.3.1: 2 μl of compound solutions of various concentrations were taken, added to a 384-well plate, and centrifuged 3 minutes; • 1.3.2: 4 μl of kinase solution was added to each well, centrifuged at 5000 rpm and 18° C. for 10 minutes, and shaken on a plate shaker for 10 minutes; • 1.3.3: 4 μl of mixed solution of substrate and ATP was added to each well, centrifuged at 5000 rpm and 18° C. for 10 minutes, and shaken on a plate shaker at 37° C. for 90 minutes; • 1.3.4: The 384-well plate was taken out, and allowed to stand to room temperature; • 1.3.5: 10 μl of ADP-GLO™ reagent was added to each well, centrifuged at 5000 rpm and 18° C. for 18 minutes, and shaken on a plate shaker at 25° C. for 40 minutes, and then the reaction was stopped; • 1.3.6: 20 μl of kinase detection reagent was added to each well, centrifuged at 5000 rpm and 18° C. for 10 minutes, and shaken on a plate shaker at 25° C. for 30 minutes; and • 1.3.7: M1000pro MICROPLATE READER was used to read […] values.
(§7) The inhibition rate of each compound at each concentration point was calculated by the formula as follows and curve fitting was performed by GraphPad Prism 5 software to obtain the IC50 value.

CDK6/CyclinD3 = CDK6/CyclinD3 (Homo sapiens (Human), UniProt Q00534); assay: CDK kinase inhibitory activity, ADP-Glo Kinase Assay, CDK6/CyclinD3; format: biochemical; conditions: for CDK1/CDK6 / CDK9/CDK6 / Pim-1/CDK6: ratio of IC50s; for CDK1/CDK6: selectivity for CDK6 over CDK1; for CDK9/CDK6: selectivity for CDK6 over CDK9; for Pim-1/CDK6: selectivity for CDK6 over Pim-1
Method: as §1, §2, §3, §4, §5, §6, §7

CDK9/CyclinD3 = CDK9/CyclinD3 (Homo sapiens (Human), UniProt P50750); assay: Kinase inhibitory activity, ADP-Glo Kinase Assay, CDK9/CyclinD3; format: biochemical
Method: as §3, §4, §5, §6, §7

Pim-1 = Pim-1 (Homo sapiens (Human), UniProt P11309); assay: Kinase inhibitory activity on Pim-1; format: biochemical
Method: as §4, §5, §6, §7

[1] = tested on: U87-luc orthotopic brain xenograft; assay: Pharmacodynamic study in U87-luc orthotopic brain xenograft model, median survival; format: in vivo, BALB/c nude mice; conditions: Temozolomide 3 mg/kg IP Day 0, 7, 14, 21 and 28; survival time range in brackets
Description: Pharmacodynamic study of the compound 17 of this disclosure and the combination of compound 17 of the disclosure and temozolomide in a U87-luc orthotopic brain xenograft model
Adult female BALB/c nude mice were used as test animals. A U87-luc orthotopic brain xenograft model was used to study the effect of representative compound 17 of this disclosure on the median survival of female BALB/c nude mice after intragastric administration.
Healthy adult female BALB/c nude mice, 8 mice/group, 6-8 weeks old, weighing 18-22 g, purchased from Shanghai SIPPR-BK Laboratory Animal Co., Ltd., Animal Production License No: 2008001658261; 2008001658263. • 7.2.3 Preparation of the test compounds
An appropriate amount of compound 17 was weighed, and added with 0.1% hydroxyethyl cellulose/0.5% TWEEN®80 as vehicle to 0.3125 mg/ml;
An appropriate amount of Temozolomide sample was weighed, and added with 0.1% CMC-Na+0.25% TWEEN®80 as vehicle to 0.3 mg/ml.
Adult female BALB/c nude mice were anesthetized by intraperitoneal injection of sodium pentobarbital at a dose of 80 mg/kg. To relieve pain, animals were injected subcutaneously with buprenorphine at the time points 30 minutes before operation and 6 hours after operation at a dose of 0.1 mg/kg. Animals were observed after anesthesia until all animals had awakened.
The anesthetized animals were properly fixed, the animals' head skin was sterilized with 70% ethanol, and an approximately 10 mm long incision was made on the right side of the midline from the forehead to the ear line. 3×10^5 U87-luc cells (3 μl, mixture of PBS and Matrigel at a ratio of 4:1) were inoculated at the right frontal lobe that is 2 mm away from the right side of the bregma and is 1 mm away from the front side of the coronal suture in each animal. The incision was sutured with a No. 6 suture, and sterilized with polyvinylpyrrolidone. Animals are kept warm until anabiosis. Six days after tumor cell transplantation, tumor animals were grouped by stratified randomization based on […] signal intensity values, and the average bioluminescence reached 2.812E+07 photons/sec when the groups were administered in groups. Different animal groups were administered at different doses for a total of 35 days.

CDK4/CyclinE1 = CDK4/CyclinE1 (Homo sapiens, UniProt P11802); conditions: read-out: CDK4/CyclinE1 IC50
Method: as §1, §2, §3, §4
The final concentration was 50 μM. • b. 40 μl of kinase reaction buffer II was added into B2 to B10 of a 96-well plate, and 50 μl of the above solution was added into B1; • c. […]
as §6, §7

CC1=Nc2c(F)cc(-c3nc(Nc4ccc(C5CCNCC5)cn4)ncc3F)cc2C12CCCC2 [Example 13, 5-Fluoro-4-(7′-fluoro-2′-methylspiro[cyclopentane-1,3′-indol]-5′-yl)-N-(5-(piperidin-4-yl)pyridin-2-yl)pyrimidine-2-amino]
IC50 (CDK1/CyclinA2): 0.327 µM
IC50 (CDK6/CyclinD3): 0.00039 µM
CDK1/CDK6 (CDK6/CyclinD3): 838.46
CDK9/CDK6 (CDK6/CyclinD3): 6.56
Pim-1/CDK6 (CDK6/CyclinD3): 5.69
IC50 (CDK9/CyclinD3): 0.00256 µM
IC50 (Pim-1): 0.00222 µM

Cn1nnc2c(C(N)=O)ncn2c1=O [Temozolomide, reference compound]
Medium survival [1]: 47(38-83) days

CCC1(C)C(C)=Nc2c(F)cc(-c3nc(Nc4ccc(C5CCN(C)CC5)cn4)ncc3F)cc21 (centres unmarked) [Example 24, 4-(3-ethyl-7-fluoro-2,3-dimethyl-3H-indol-5-yl)-5-fluoro-N-(5-(1-methylpiperidin-4-yl)pyridin-2-yl)pyrimidine-2-amino]
IC50 (CDK1/CyclinA2): 0.0764 µM
IC50 (CDK6/CyclinD3): 0.0129 µM
CDK1/CDK6 (CDK6/CyclinD3): 5.94
CDK9/CDK6 (CDK6/CyclinD3): 0.13
Pim-1/CDK6 (CDK6/CyclinD3): 5.66
IC50 (CDK9/CyclinD3): 0.00174 µM
IC50 (Pim-1): 0.0728 µM

CC1=Nc2c(F)cc(-c3nc(Nc4ccc(N5CCNCC5)cn4)ncc3F)cc2C12CCCC2 [Example 6, 5-fluoro-4-(7′-fluoro-2′-methylspiro[cyclopentane-1,3′-indol]-5′-yl)-N-(5-(piperazin-1-yl)pyridin-2-yl)pyrimidine-2-amino]
IC50 (CDK1/CyclinA2): 0.152 µM
IC50 (CDK6/CyclinD3): 0.00645 µM
CDK1/CDK6 (CDK6/CyclinD3): 23.59
CDK9/CDK6 (CDK6/CyclinD3): 0.06
Pim-1/CDK6 (CDK6/CyclinD3): 2.33
IC50 (CDK9/CyclinD3): 0.00042 µM
IC50 (Pim-1): 0.0151 µM
IC50 (CDK4/CyclinE1): 0.0809 µM
